The values that follow come from patent US20230391786A1, “cGAS INHIBITORS” (Eli Lilly and Company, priority 2022, published 2023).

Assay [1] concerns cGAS activity in THP1 cells (IFNb as marker). The experiment in a line: Cellular assay to measure cGAS activity (IFNb production in PMA-differentiated THP1 cells stimulated by RDG-Adenovirus-GFP). Format: cell-based, human. As to conditions: Homo sapiens, THP-1, THP1 cells, PMA differentiated, RDG-Adenovirus-GFP 1000 MOI, IFNb AlphaLISA, overnight incubation; read-out: IC50 (μM), Cellular assay for Compounds 95-348. The method, then:
Cellular assay to measure cGAS activity: Use THP1 cell line from ATCC to determine inhibition of cGAS activity by test compounds in human cells. Plate cells on 96-well plates at 0.2×10^6/well and differentiate with phorbol myristate acetate (PMA) at 37° C./5% CO2. After 24 hours, replace PMA containing media with media lacking PMA and further incubate overnight. Stimulate cells were then by RDG-Adenovirus-GFP (Vector Biolabs #1768) at 1000 MOI for 4 hours prior to the addition of test compounds. After overnight incubation, transfer 10 μL of the media from each well to a new plate for IFNb analysis as a marker for cGAS activity. Measure quantification of IFNb with an IFNb AlphaLISA Detection kit (Perkin Elmer AL3133F) by mixing the acceptor beads with the cell supernatant followed by the addition of the biotinylated antibody and donor beads. Measure the relative fluorescence signal produced from the interaction of the donor and acceptor beads by a PHERAStar AlphaLISA protocol and evaluate the inhibitory effect of a compound by plotting specific inhibition of IFNb production against log concentration of the test compound. Calculate IC50 values using a 4-parameter non-linear logistic equation (y=(S0+((SInf−S0)/(1+((qAC50/x)^nHill))))).

Assay [2] has as its target recombinant human cGAS (Homo sapiens (Human), UniProt Q8N884). Description: In vitro inhibition assay of cGAS activity (cGAMP production, RapidFire mass spectrometry). Format: biochemical. Conditions: 10 nM recombinant human cGAS, 60 nM 75-bp dsDNA, ATP, GTP, room temperature 3 hours, read-out: IC50 (μM), In vitro inhibition assay for Compounds 95-348. In short, it runs like this: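 Product cGAMP was quantified by RapidFire MS against a difluoro-cGAMP internal standard after a formic acid quench. The reaction contained 10 nM recombinant full-length human cGAS, 75-bp dsDNA (60 nM), ATP and GTP (50 μM) and ran for 3 h at room temperature. IC50 values came from 4-parameter nonlinear regression.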

Sequence of recombinant human cGAS (Q8N884 whole entry): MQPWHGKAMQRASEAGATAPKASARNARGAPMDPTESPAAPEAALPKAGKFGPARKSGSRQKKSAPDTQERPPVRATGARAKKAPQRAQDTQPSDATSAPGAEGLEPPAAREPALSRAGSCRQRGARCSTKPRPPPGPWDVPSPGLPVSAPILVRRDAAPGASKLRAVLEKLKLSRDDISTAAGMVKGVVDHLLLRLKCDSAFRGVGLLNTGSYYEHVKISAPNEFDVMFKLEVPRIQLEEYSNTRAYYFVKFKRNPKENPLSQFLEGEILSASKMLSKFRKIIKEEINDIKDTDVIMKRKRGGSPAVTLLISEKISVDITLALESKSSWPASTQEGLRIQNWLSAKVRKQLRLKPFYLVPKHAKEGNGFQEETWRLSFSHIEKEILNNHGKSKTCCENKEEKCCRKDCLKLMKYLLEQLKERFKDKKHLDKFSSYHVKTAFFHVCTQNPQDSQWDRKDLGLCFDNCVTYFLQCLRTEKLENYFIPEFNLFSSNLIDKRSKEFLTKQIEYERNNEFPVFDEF

Regarding `O=C(CO)NC1CCc2c(-c3cn[nH]c3)c3ccc(Cl)c(Cl)c3n2C1` (stereo not drawn) [Example 95, N-[3,4-Dichloro-10-(1H-pyrazol-4-yl)-6,7,8,9-tetrahydropyrido[1,2-a]indol-7-yl]-2-hydroxy-acetamide], the figures for the IC50 in assay [1] and in assay [2] were 2.06 µM and 0.0159 µM, respectively.
The corresponding values for `O=C(NC1CCc2c(-c3cn[nH]c3)c3ccc(Cl)c(Cl)c3n2C1)C1CCOCC1` (stereo not drawn) [Example 96, N-[3,4-Dichloro-10-(1H-pyrazol-4-yl)-6,7,8,9-tetrahydropyrido[1,2-a]indol-7-yl]tetrahydropyran-4-carboxamide] are 2.43 µM and 0.0449 µM.
The corresponding values for `CC(=O)NC1CCc2c(-c3cn[nH]c3)c3c(OCC#N)cc(Cl)c(Cl)c3n2C1` (stereo not drawn) [Example 102, N-[3,4-Dichloro-1-(cyanomethoxy)-10-(1H-pyrazol-4-yl)-6,7,8,9-tetrahydropyrido[1,2-a]indol-7-yl]acetamide] are 1.28 µM and 0.0166 µM.
The corresponding values for `O=C(Cn1cnnc1)NCc1[nH]c2c(Cl)c(Cl)ccc2c1-c1cn[nH]c1` [Example 103, N-((6,7-Dichloro-3-(1H-pyrazol-4-yl)-1H-indol-2-yl)methyl)-2-(4H-1,2,4-triazol-4-yl)acetamide] are above 10 µM and 0.051 µM.
Regarding `CC(=O)NCC(=O)NC1CCc2c(-c3cn[nH]c3)c3ccc(Cl)c(Cl)c3n2C1` (stereo not drawn) [Example 107, 2-Acetamido-N-[3,4-dichloro-10-(1H-pyrazol-4-yl)-6,7,8,9-tetrahydropyrido[1,2-a]indol-7-yl]acetamide], the half-inhibitory concentration (IC50) in assay [1] worked out at 5.56 µM; in assay [2], 0.0196 µM.
Consider `O=C(Cn1ccnc1)N1CCn2c(c(-c3cn[nH]c3)c3ccc(Cl)c(Cl)c32)C1` [Example 111, 1-[6,7-Dichloro-10-(1H-pyrazol-4-yl)-3,4-dihydro-1H-pyrazino[1,2-a]indol-2-yl]-2-imidazol-1-yl-ethanone], for which the IC50 is above 10 µM in assay [1] and 0.0468 µM in assay [2].
Taken in the same sequence, the figures for `O=C(Cc1cnccn1)NCc1[nH]c2c(Cl)c(Cl)ccc2c1-c1cn[nH]c1` [Example 112, N-((6,7-Dichloro-3-(1H-pyrazol-4-yl)-1H-indol-2-yl)methyl)-2-(pyrazin-2-yl)acetamide] were 1.56 µM and 0.0361 µM.
Taken in the same sequence, the figures for `CN(C)C(=O)CCC(=O)N1CCn2c(c(-c3cn[nH]c3)c3c(OCC#N)cc(Cl)c(Cl)c32)C1` [Example 113, 4-[6,7-Dichloro-9-(cyanomethoxy)-10-(1H-pyrazol-4-yl)-3,4-dihydro-1H-pyrazino[1,2-a]indol-2-yl]-N,N-dimethyl-4-oxo-butanamide] were 3.46 µM and 0.018 µM.
Taken in the same sequence, the figures for `CN1CCOC[C@@H]1CC(=O)N1CCn2c(c(-c3cn[nH]c3)c3c(OCC#N)cc(Cl)c(Cl)c32)C1` [Example 114, (S)-2-((6,7-Dichloro-2-(2-(4-methylmorpholin-3-yl)acetyl)-10-(1H-pyrazol-4-yl)-1,2,3,4-tetrahydropyrazino[1,2-a]indol-9-yl)oxy)acetonitrile] were 1.53 µM and 0.0244 µM.
For the compound `CN1CCOC[C@H]1CC(=O)N1CCn2c(c(-c3cn[nH]c3)c3c(OCC#N)cc(Cl)c(Cl)c32)C1` [Example 115, (R)-2-((6,7-Dichloro-2-(2-(4-methylmorpholin-3-yl)acetyl)-10-(1H-pyrazol-4-yl)-1,2,3,4-tetrahydropyrazino[1,2-a]indol-9-yl)oxy)acetonitrile], the IC50 is 1.12 µM in assay [1] and 0.0288 µM in assay [2].
Taken in the same sequence, the figures for `CC(=O)NC1CCCn2c1c(-c1cn[nH]c1)c1ccc(Cl)c(Cl)c12` (stereo not drawn) [Example 116, N-(3,4-Dichloro-10-(1H-pyrazol-4-yl)-6,7,8,9-tetrahydropyrido[1,2-a]indol-9-yl)acetamide] were 5.23 µM and 0.0217 µM.
Consider `COCCS(=O)(=O)NC1CCc2c(-c3cn[nH]c3)c3ccc(Cl)c(Cl)c3n2C1` (stereo not drawn) [Example 117, N-[3,4-Dichloro-10-(1H-pyrazol-4-yl)-6,7,8,9-tetrahydropyrido[1,2-a]indol-7-yl]-2-methoxy-ethanesulfonamide], for which the values for the IC50 in assay [1] and in assay [2] were 2.49 µM and 0.0153 µM, respectively.
Regarding `CNC(=O)CCS(=O)(=O)NC1CCc2c(-c3cn[nH]c3)c3ccc(Cl)c(Cl)c3n2C1` (stereo not drawn) [Example 118, 3-(N-(3,4-Dichloro-10-(1H-pyrazol-4-yl)-6,7,8,9-tetrahydropyrido[1,2-a]indol-7-yl)sulfamoyl)-N-methylpropanamide], the IC50 in assay [1] was 3.61 µM; in assay [2], 0.0165 µM.
With `CC(=O)NCCS(=O)(=O)NC1CCc2c(-c3cn[nH]c3)c3ccc(Cl)c(Cl)c3n2C1` (stereo not drawn) [Example 119, N-(2-(N-(3,4-Dichloro-10-(1H-pyrazol-4-yl)-6,7,8,9-tetrahydropyrido[1,2-a]indol-7-yl)sulfamoyl)ethyl)acetamide], the IC50 in assay [1] worked out at 3.66 µM; in assay [2] it was 0.0186 µM.
In the case of `O=S(=O)(CCn1cnnn1)NC1CCc2c(-c3cn[nH]c3)c3ccc(Cl)c(Cl)c3n2C1` (stereo not drawn) [Example 120, N-(3,4-Dichloro-10-(1H-pyrazol-4-yl)-6,7,8,9-tetrahydropyrido[1,2-a]indol-7-yl)-2-(1H-tetrazol-1-yl)ethane-1-sulfonamide], the IC50 in assay [1] worked out at 2.27 µM; in assay [2], 0.0154 µM.
Take `OC/C=C/CNc1cc(Cl)c(Cl)c2[nH]cc(-c3cn[nH]c3)c12` [Example 121, (E)-4-((6,7-Dichloro-3-(1H-pyrazol-4-yl)-1H-indol-4-yl)amino)but-2-en-1-ol]: the IC50 in assay [1] was 2.99 µM; in assay [2] it was 0.0652 µM.
Taken in the same sequence, the figures for `FC(F)CNc1cc(Cl)c(Cl)c2[nH]cc(-c3cn[nH]c3)c12` [Example 122, 6,7-Dichloro-N-(2,2-difluoroethyl)-3-(1H-pyrazol-4-yl)-1H-indol-4-amine] were 0.88 µM and 0.0137 µM.
With `FCCNc1cc(Cl)c(Cl)c2[nH]cc(-c3cn[nH]c3)c12` [Example 123, 6,7-Dichloro-N-(2-fluoroethyl)-3-(1H-pyrazol-4-yl)-1H-indol-4-amine], the IC50 stood at 0.547 µM in assay [1] and 0.00491 µM in assay [2].
Turning to `NCCOCCOCCOCCC(=O)NC1CCc2c(-c3cn[nH]c3)c3ccc(Cl)c(Cl)c3n2C1` (stereo not drawn) [Example 124, 3-[2-[2-(2-Aminoethoxy)ethoxy]ethoxy]-N-[3,4-dichloro-10-(1H-pyrazol-4-yl)-6,7,8,9-tetrahydropyrido[1,2-a]indol-7-yl]propanamide], the values for the IC50 in assay [1] and in assay [2] were above 10 µM and 0.0882 µM, respectively.
The corresponding values for `CC(CO)COc1cc(Cl)c(Cl)c2[nH]cc(-c3cn[nH]c3)c12` (stereo not drawn) [Example 125, 3-((6,7-Dichloro-3-(1H-pyrazol-4-yl)-1H-indol-4-yl)oxy)-2-methylpropan-1-ol] are 0.426 µM and 0.0103 µM.
As for `F[C@H]1C[C@@H](Oc2cc(Cl)c(Cl)c3[nH]cc(-c4cn[nH]c4)c23)C1` [Example 126, 6,7-Dichloro-4-(cis-3-fluorocyclobutoxy)-3-(1H-pyrazol-4-yl)-1H-indole], the IC50 in assay [1] was found to be 1.45 µM; in assay [2] it was 0.0358 µM.
In the case of `Cc1nnc(-c2[nH]c3c(Cl)c(Cl)ccc3c2-c2cn[nH]c2)o1` [Example 127, 2-(6,7-Dichloro-3-(1H-pyrazol-4-yl)-1H-indol-2-yl)-5-methyl-1,3,4-oxadiazole], the IC50 in assay [1] was 0.216 µM; in assay [2], 0.029 µM.
As to `FC(F)(F)c1nnc(-c2[nH]c3c(Cl)c(Cl)ccc3c2-c2cn[nH]c2)o1` [Example 128, 2-(6,7-Dichloro-3-(1H-pyrazol-4-yl)-1H-indol-2-yl)-5-(trifluoromethyl)-1,3,4-oxadiazole], the results for the IC50 in assay [1] and in assay [2] were above 10 µM and 0.0691 µM, respectively.
Regarding `CC(=S)NCc1[nH]c2c(Cl)c(Cl)ccc2c1-c1cn[nH]c1` [Example 129, N-[[6,7-Dichloro-3-(1H-pyrazol-4-yl)-1H-indol-2-yl]methyl]thioacetamide], the values for the IC50 in assay [1] and in assay [2] were 0.895 µM and 0.0552 µM, respectively.
Taken in the same sequence, the figures for `CC(=O)Nc1cc(Cl)c(Cl)c2[nH]c(CO)c(-c3cn[nH]c3)c12` [Example 130, N-(6,7-Dichloro-2-(hydroxymethyl)-3-(1H-pyrazol-4-yl)-1H-indol-4-yl)acetamide] were 0.815 µM and 0.0711 µM.
Take `O=C(Nc1cc(Cl)c(Cl)c2[nH]c(CO)c(-c3cn[nH]c3)c12)C(F)F` [Example 131, N-(6,7-Dichloro-2-(hydroxymethyl)-3-(1H-pyrazol-4-yl)-1H-indol-4-yl)-2,2-difluoroacetamide]: the IC50 in assay [1] was determined as 0.163 µM; in assay [2] it was 0.0131 µM.
Taken in the same sequence, the figures for `COCc1[nH]c2c(Cl)c(Cl)cc(NC(=O)C(F)F)c2c1-c1cn[nH]c1` [Example 132, N-(6,7-Dichloro-2-(methoxymethyl)-3-(1H-pyrazol-4-yl)-1H-indol-4-yl)-2,2-difluoroacetamide] were 0.317 µM and 0.0202 µM.
